#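 Cells were grown in 96-well plates and exposed to each compound for 48 hours at five concentrations; endpoints were interpolated linearly between bracketing concentrations, or set to the highest concentration if not reached. GI50 = concentration required for 50% inhibition of growth. TGI: concentration producing complete growth inhibition.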
# Key:
# Assay in all cases: NCI anticancer screen, dose series, 48 h
# A498 renal = tested on: A498 renal
# DU-145 prostate = tested on: DU-145 prostate
# HCC-2998 colon = tested on: HCC-2998 colon
# HS 578T breast = tested on: HS 578T breast
# K-562 leukemia = tested on: K-562 leukemia
# MOLT-4 leukemia = tested on: MOLT-4 leukemia
# OVCAR-5 ovarian = tested on: OVCAR-5 ovarian
# SK-MEL-28 melanoma = tested on: SK-MEL-28 melanoma
# SNB-19 CNS = tested on: SNB-19 CNS
# PC-3 prostate = tested on: PC-3 prostate
Structure (SMILES),TGI (A498 renal) [µM],TGI (DU-145 prostate) [µM],TGI (HCC-2998 colon) [µM],TGI (HS 578T breast) [µM],TGI (K-562 leukemia) [µM],TGI (MOLT-4 leukemia) [µM],TGI (OVCAR-5 ovarian) [µM],TGI (SK-MEL-28 melanoma) [µM],TGI (SNB-19 CNS) [µM],GI50 (A498 renal) [µM],GI50 (DU-145 prostate) [µM],GI50 (HCC-2998 colon) [µM],GI50 (HS 578T breast) [µM],GI50 (K-562 leukemia) [µM],GI50 (OVCAR-5 ovarian) [µM],GI50 (PC-3 prostate) [µM],TGI (PC-3 prostate) [µM],GI50 (SNB-19 CNS) [µM],GI50 (MOLT-4 leukemia) [µM],GI50 (SK-MEL-28 melanoma) [µM]
CC(=O)OC(C)(C)/C=C/C(=O)[C@](C)(O)[C@H]1[C@H](O)C[C@@]2(C)[C@@H]3CC=C4[C@@H](C[C@H](O)C(=O)C4(C)C)[C@]3(C)C(=O)C[C@]12C,< 0.01,1.05,4.45,< 0.01,16.8,2.78,13.8,< 0.01,0.153,–,–,–,–,–,–,–,–,–,–,–
COC(=O)c1ccc(N=NN(C)CO)cc1,> 100,–,> 100,–,> 100,> 100,> 100,> 100,> 100,–,–,–,–,–,–,–,–,–,–,–
CS(=O)c1ccc(COP(N)(=O)N(CCCl)CCCl)cc1 (stereo unspecified),> 100,–,> 100,–,> 100,> 100,> 100,> 100,> 100,–,–,–,–,–,–,–,–,–,–,–
CCOC(=O)CC1=CSC2=NCCN12,> 100,–,> 100,–,> 100,–,> 100,> 100,> 100,–,–,–,–,–,–,–,–,–,–,–
O=S1(=O)C[C@@H](O)[C@H](O)CS1,> 100,–,> 100,–,> 100,> 100,> 100,> 100,> 100,–,–,–,–,–,–,–,–,–,–,–
S=C(Nc1ccc(Cl)cc1)Nc1ccc(-c2nc3ccccc3[nH]2)cc1,55.5,–,2.69,60.6,31.3,–,40.8,35.5,36.5,23.6,12.1,1.39,6.49,5.2,20.4,5.37,35.8,9.29,–,–
Cc1c2cc[nH]c(=O)c2cc2c(=O)c3cnccc3[nH]c12,> 100,–,> 100,–,> 100,> 100,> 100,> 100,> 100,–,–,–,–,–,–,–,–,–,–,–
O=c1cc(-c2ccccc2)nc2n1CCN2Cc1ccccc1,34.2,> 100,–,81.7,90.3,79.5,–,> 100,> 100,10.1,34,–,26.9,34.7,–,32.3,> 100,80.9,20.2,60
O=C1C(=O)c2ccccc2C(O)=C1C(CCc1ccccc1)C1=C(O)c2ccccc2C(=O)C1=O,> 100,29.1,–,> 100,–,–,> 100,> 100,> 100,–,–,–,–,–,–,–,> 100,–,–,–
CCOC(=O)C(C)c1cc(C2(C)OCCO2)c(C)o1 (stereo unspecified),–,–,> 100,–,> 100,> 100,> 100,–,> 100,–,–,–,–,–,–,–,–,–,–,–
O=C1C=Cc2ccccc2/C1=C/c1[nH]c(=O)[nH]c1O,10.6,76.8,> 100,–,34,> 100,> 100,–,16.6,2.87,5.8,7.43,–,2.85,42.8,3.61,> 100,3.49,4.19,–
Nc1ccccc1C#C/C=C\C#Cc1ccc(Cl)cc1Cl,27,37.8,9.58,8.49,> 100,> 100,28.7,> 100,–,12.6,13.5,3.37,3.61,4.84,13.8,9.04,42.1,–,1.62,27
CC(C(=O)Oc1ccc2ccccc2c1-c1c(O)ccc2ccccc12)c1ccccc1 (stereo unspecified),29.4,–,28.9,–,86.7,44.8,31,29.2,28.4,–,–,–,–,–,–,–,–,–,–,–
COC(=O)c1c(CC#N)cccc1CC#N,–,–,> 100,–,> 100,> 100,> 100,–,> 100,–,–,–,–,–,–,–,–,–,–,–
ON=C1CCC(c2ccccc2)CC1 (stereo unspecified),> 100,–,> 100,–,> 100,–,> 100,> 100,> 100,–,–,–,–,–,–,–,–,–,–,–
COC(=O)C(Nc1ccc(OC)cc1)c1ccccc1 (stereo unspecified),–,> 100,–,> 100,> 100,> 100,> 100,> 100,> 100,–,–,–,–,–,–,–,> 100,–,–,–
COc1ccc(-c2nc(-c3ccccc3)c(-c3ccccc3)n2C2CC2)cc1OC1CCCC1,> 165,> 165,–,> 165,> 165,> 165,> 165,> 165,> 165,9.57,94.5,–,26.3,11.5,> 165,22.6,> 165,> 165,45.7,> 165
CCOC(=O)c1ccc(N2C(=O)/C(=C\OC)c3ccccc3C2=O)cc1,–,–,> 100,–,> 100,89.3,> 100,> 100,> 100,–,–,–,–,–,–,–,–,–,–,–
Nc1c(-c2nc3ccccc3[nH]2)sc(=S)n1-c1ccccc1,> 100,–,> 100,–,> 100,45.8,> 100,> 100,> 100,–,–,–,–,–,–,–,–,–,–,–
O=C(Oc1ccc(CCl)cc1)c1ccccc1,1.83,0.746,0.385,0.438,–,0.538,0.302,0.315,0.495,0.221,0.269,0.189,0.121,–,0.161,0.15,0.332,0.187,0.188,0.159
O=C([CH-]C(=O)c1ccccc1)c1ccccc1.O=C([CH-]C(=O)c1ccccc1)c1ccccc1.[Nd+3].[OH-].[OH3+],39.6,–,26.6,–,19.1,33.1,81.5,44.8,44.9,11,–,9.11,–,3.31,22.3,–,–,8.19,3.88,11.5
COc1ccc(/C=C2/C[N+](C)(C)C/C(=C/c3ccc(OC)cc3)C2=O)cc1,> 100,–,31,–,> 100,57.1,> 100,18.6,> 100,–,–,–,–,–,–,–,–,–,–,–

Structure (SMILES),TGI (A498 renal) [µM],TGI (DU-145 prostate) [µM],TGI (HCC-2998 colon) [µM],TGI (HS 578T breast) [µM],TGI (K-562 leukemia) [µM],TGI (MOLT-4 leukemia) [µM],TGI (OVCAR-5 ovarian) [µM],TGI (SK-MEL-28 melanoma) [µM],TGI (SNB-19 CNS) [µM],GI50 (A498 renal) [µM],GI50 (DU-145 prostate) [µM],GI50 (HCC-2998 colon) [µM],GI50 (HS 578T breast) [µM],GI50 (K-562 leukemia) [µM],GI50 (OVCAR-5 ovarian) [µM],GI50 (PC-3 prostate) [µM],TGI (PC-3 prostate) [µM],GI50 (SNB-19 CNS) [µM],GI50 (MOLT-4 leukemia) [µM],GI50 (SK-MEL-28 melanoma) [µM]
CC1(C)N=C(N)N=C(N)N1c1cc(Cl)ccc1Cl,> 100,> 100,> 100,–,> 100,> 100,> 100,> 100,> 100,> 100,28.3,> 100,–,55.3,> 100,> 100,> 100,> 100,> 100,> 100
N.N.NC(CS)C(=O)[O-].NC(CS)C(=O)[O-].[Pt+4] (stereo unspecified),–,–,> 50,–,> 50,> 50,> 50,> 50,> 50,–,–,> 50,–,> 50,> 50,–,–,> 50,> 50,> 50
CN(C)CCCNC(=O)c1cc(NC(=O)c2cc(NC(=O)c3cc(NC(=O)CCc4c[nH]c5ccccc45)cn3C)cn2C)cn1C,–,> 100,> 100,> 100,> 100,> 100,> 100,> 100,> 100,–,> 100,> 100,0.0701,> 100,> 100,> 100,> 100,> 100,> 100,2.24
CC1=Cc2cc3[n-]c(cc4nc(cc5[n-]c(cc1n2)cc5C)C(C)=C4CCC(=O)O)c(CCC(=O)O)c3C.[Pd+2],29.8,> 100,28.8,–,> 37,27.5,58.2,12.7,34.1,12.6,> 100,10.2,–,11,41.6,> 100,> 100,9.52,10.1,3.06
COC(=O)Nc1nc2ccccc2c(=O)[nH]1,–,> 100,> 100,> 100,> 100,> 100,> 100,> 100,> 100,–,–,–,–,–,–,–,> 100,–,–,–
O=C(c1ccccc1)c1c(C(=O)c2ccccc2)c(-c2ccccc2)c2c(-c3ccccc3)sc(-c3ccccc3)c2c1-c1ccccc1,> 100,–,> 100,–,> 100,–,> 100,> 100,> 100,–,–,–,–,–,–,–,–,–,–,–
CCOC(=O)C1C(=O)c2ccccc2CN1Cc1ccccc1 (stereo unspecified),–,–,> 100,–,> 100,> 100,> 100,> 100,> 100,–,–,–,–,–,–,–,–,–,–,–
Cn1c(=O)c2[nH]c(CS(=O)(=O)Cc3nc4c([nH]3)c(=O)n(C)c(=O)n4C)nc2n(C)c1=O,> 100,> 100,–,> 100,> 100,> 100,> 100,> 100,> 100,–,–,–,–,–,–,–,> 100,–,–,–
O=C(O)c1cc2c(cn1)[nH]c1ccccc12,–,–,> 100,–,> 100,> 100,> 100,> 100,> 100,–,–,–,–,–,–,–,–,–,–,–
CC(=O)OCC1OC(n2c(=O)n(-c3ccccc3)c(=O)c3ccccc32)C(OC(C)=O)C(OC(C)=O)C1OC(C)=O (stereo unspecified),> 100,–,> 100,–,> 100,> 100,> 100,> 100,> 100,–,–,–,–,–,–,–,–,–,–,–
O=C1OC(=O)C2C1C1(c3ccccc3)C(c3ccccc3)=C(c3ccccc3)C2(c2ccccc2)S1=O (stereo unspecified),> 100,> 100,> 100,–,> 100,–,> 100,> 100,> 100,> 100,> 100,> 100,–,78.2,> 100,87.7,> 100,> 100,–,> 100
CN(c1ccccc1)C(c1ccccc1)C(O)c1ccccc1 (stereo unspecified),37.5,–,38.8,–,41.1,42.1,37.3,41.7,36.4,–,–,–,–,–,–,–,–,–,–,–
c1ccc(N=C2c3ccccc3C3=NCCCN32)cc1,> 100,–,> 100,–,> 100,> 100,> 100,> 100,> 100,–,–,–,–,–,–,–,–,–,–,–
COC(=O)C1=C(O)C(O)=C(C(=O)OC)C1,> 100,–,> 100,–,> 100,> 100,> 100,> 100,> 100,–,–,–,–,–,–,–,–,–,–,–
O=[N+]([O-])C1C2C=CC(C2)[C@H]1c1ccccc1Cl (stereo partly specified),> 100,–,> 100,–,> 100,> 100,> 88.2,> 100,> 100,–,–,–,–,–,–,–,–,–,–,–
CC[N+](CC)(CC)CCCn1c2c(c3ccccc3c1=O)C(=O)c1ccccc1-2,–,–,20.9,–,> 100,> 100,48.6,> 100,> 100,–,–,5.62,–,18.7,16.5,9.13,69.1,31.6,5.58,29.2
COc1ccc2ccc([Se]c3ccc4ccc(OC)cc4c3)cc2c1,> 100,–,> 100,–,> 100,> 100,–,> 100,68.8,–,–,–,–,–,–,–,–,–,–,–
CC(=O)/C=C/c1ccc(C2CC(C)=Nc3c(ccc4c3C(=O)c3ccccc3C4=O)N2)cc1 (stereo unspecified),> 100,–,> 100,–,> 100,> 100,> 100,> 100,> 100,–,–,–,–,–,–,–,–,–,–,–
O=C1C(=O)N(c2ccc(Cl)c(Cl)c2)C(=O)C(=O)C1c1nc2ccccc2o1,–,–,> 100,–,> 100,> 100,> 100,> 100,> 100,–,–,–,–,–,–,–,–,–,–,–
O=C(O)C12C3CCCC1C2CC3 (stereo unspecified),> 100,–,–,–,> 100,> 100,> 100,> 100,> 100,–,–,–,–,–,–,–,–,–,–,–
O=C1OC2(c3ccccc3Oc3ccccc32)c2ccccc21,> 100,–,> 100,–,> 100,> 100,> 100,> 100,> 100,–,–,–,–,–,–,–,–,–,–,–
